Measured values: PubChem BioAssay (NCI)
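The compound was tested at five concentrations on cells cultured in 96-well plates, with a 48-hour exposure period. TGI: concentration producing complete growth inhibition.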

Experiments:
Assay in all cases: growth of human tumour cells (NCI), 48 h
[1] = test system: 786-0 renal
[2] = test system: BT-549 breast
[3] = test system: CAKI-1 renal
[4] = test system: HL-60(TB) leukemia
[5] = test system: HT29 colon
[6] = test system: KM12 colon
[7] = test system: MOLT-4 leukemia
[8] = test system: NCI/ADR-RES ovarian
[9] = test system: OVCAR-5 ovarian
[10] = test system: SK-MEL-2 melanoma
[11] = test system: SK-MEL-28 melanoma
[12] = test system: SK-MEL-5 melanoma
[13] = test system: SK-OV-3 ovarian
[14] = test system: SNB-19 CNS
[15] = test system: SNB-75 CNS
[16] = test system: EKVX NSCLC

Compound | TGI [1] [µM] | TGI [2] [µM] | TGI [3] [µM] | TGI [4] [µM] | TGI [5] [µM] | TGI [6] [µM] | TGI [7] [µM] | TGI [8] [µM] | TGI [9] [µM] | TGI [10] [µM] | TGI [11] [µM] | TGI [12] [µM] | TGI [13] [µM] | TGI [14] [µM] | TGI [15] [µM] | TGI [16] [µM]
CCOC(=O)c1c(-c2ccc(OC)cc2)c(C#N)c(=S)n(C2OC(CO)C(O)C(O)C2O)c1-c1ccccc1 (centres undefined) | > 100 | > 100 | > 100 | > 100 | > 100 | > 100 | 96.5 | > 100 | > 100 | > 100 | > 100 | 26.5 | > 100 | > 100 | > 100 | –
O=S(CCCl)c1c2ccccc2nc2ccccc12 (centres undefined) | > 100 | – | 80.5 | > 100 | > 100 | > 100 | > 100 | > 100 | > 100 | > 100 | > 100 | – | > 100 | > 100 | > 100 | > 100
CCCCCCCC/C=C\CCCCCCCC(=O)NCCN(CCN)C(=O)CCCCCCC/C=C\CCCCCCCC | > 100 | – | > 100 | > 100 | > 100 | – | > 100 | – | > 100 | – | > 100 | > 100 | > 100 | > 100 | – | –
N/N=C1\CCCc2c1no[n+]2[O-] | > 100 | – | > 100 | > 100 | > 100 | > 100 | > 100 | > 100 | > 100 | > 100 | > 100 | > 100 | > 100 | > 100 | > 100 | > 100
COc1nc2sc3c(c2c(=O)n1CCCSSCCCn1c(OC)nc2sc4c(c2c1=O)CCCC4)CCCC3 | > 100 | – | > 100 | – | > 100 | > 100 | > 100 | > 100 | > 100 | > 100 | > 100 | > 100 | > 100 | > 100 | > 100 | > 100
CCOP(=O)(OCC)/C(C#N)=C/c1cccn1CC(C)C | > 100 | > 100 | > 100 | – | > 100 | > 100 | > 100 | > 100 | > 100 | > 100 | > 100 | > 100 | > 100 | > 100 | > 100 | > 100
CN(C)c1nc(NN)c2c(-c3ccccc3)c(-c3ccccc3)oc2n1 | > 100 | – | > 100 | – | > 100 | > 100 | > 100 | > 100 | > 100 | – | > 100 | – | > 100 | > 100 | > 100 | > 100
O=c1[nH]nc(Cc2ccc(Cl)cc2)n1/N=C\c1ccc(/C=N/n2c(Cc3ccc(Cl)cc3)n[nH]c2=O)cc1 | 53.1 | > 100 | > 100 | > 100 | > 100 | > 100 | > 100 | > 100 | > 100 | > 100 | > 100 | > 100 | – | > 100 | – | > 100
